In US7063946B2, “Methods, reagents, kits and apparatus for protein function analysis” (Meso Scale Technologies, LLC., priority 2001, dated 2006):

Tests used:
Test in all cases: Kinase inhibitor profiling, autophosphorylation
Format in all cases: biochemical
FRK = test system: FRK
Experimental: (§1) Proteins were produced from DNA plasmids of Mock Luciferase, Promega, tyrosine kinase clone Spleen Tyrosine kinase (SYK, IMAGE ID# 3870426) and Eph receptor-A7 (EphA7, IMAGE ID# 3991628) (Incyte Genomics, CA) and immobilized on streptavidin or avidin coated NPT-IPR plates as described in the Example 7. To promote autophosphorylation in these immobilized and purified proteins, Mn++ ions were added in a 50 μl reaction containing 5 mM MgCl2, 5 mM MnCl2, 100 μM ATP, 25 mM Tris-HCl buffer pH 7.4, 0.05 mM Na3VO4, 0.004% TritonX-100, 2 mM DTT and EDTA-free protease inhibitor (Roche Molecular Biochemicals). This mixture was incubated with shaking at room temperature overnight to allow autophosphorylation. Following this incubation, wells were washed 2 times with TT-buffer and 2 times with water. Following this step, 50 ng Sulfo-TAG labeled anti-phosphotyrosine in buffer containing 25 mM Tris-HCl buffer pH 7.4, 5 mM MgCl2, 0.05 mM Na3VO4, 0.004% TritonX-100, 2 mM DTT and 0.05% IgG in a final volume of 50 μl was added followed by incubation at room temperature for 45 min. The unbound reagents were removed by one time washing with water, and the TAG label was detected in presence of 150 μl IPR assay buffer (0.4 mM Gly—Gly buffer, pH 7.8, 1 mM EDTA, 0.1 M TPA). The ECL signals were measured using an imaging plate reader.
(§2) Proteins were produced using 100 ng of plasmid DNA Mock (Luciferase, Promega) or tyrosine kinases (Fert2 IMAGE ID # 4485050, FGFR1 IMAGE ID # 4037899, Fgfr2 IMAGE ID # 2654352, Src IMAGE ID # 3156400, BMX IMAGE ID # 3919253, LCK IMAGE ID # 4191610, Epha7 IMAGE ID # 3991628, Ephb4 IMAGE ID # 4013934, Tek IMAGE ID # 3482498, HCK IMAGE ID # 4778819, BTK IMAGE ID # 4478463, CSK IMAGE ID # 4398416, SYK IMAGE ID # 3870426, FGR IMAGE ID # 4419973, PTK2B IMAGE ID # 4339456, FRK(IMAGE ID # 4515877, Kit IMAGE ID # 2644960, Fgfr-4 IMAGE ID # 4239139, NTRK3 IMAGE ID # 4181574, Kdr IMAGE ID # 4238984, Incyte Genomics, CA) and immobilized on SA or avidin coated NPT-IPR plates as described in previous examples. The unbound components of the translation reaction (including any endogenous kinases) were removed by 3 washes with TT-buffer (25 mM Tris-HCl buffer pH 7.4 and 0.004% Triton), two five minutes washes with high-salt wash buffer (25 mM Tris-HCl buffer pH 7.4, 0.004% Triton, 1M NaCl and 5 mM DTT) and 3 washes with TT-buffer. […] The mixture was incubated at room temperature for 10 mm before starting the kinase reaction by adding 25 μl of 200 μM ATP in buffer A. This mixture was incubated with intermittent shaking at room temperature for 2 hours to overnight to allow (a) phosphorylation of the pEY substrate and (b) autophosphorylation of the immobilized kinases. Autophosphorylation and phosphorylation of the pEY was measured as described in Examples 7 and 8.
(§3) The ECL signal in control wells produced by tyrosine kinases was compared to the wells containing inhibitor compounds. The signal produced from Mock was negligible.

PTK2B = molecular target: T1, PTK2B (Homo sapiens, UniProt Q14289)
T1 construct: specificity data for proteins generated from a library of eighteen full-length clones; host or cells: rabbit reticulocyte lysate, TnT coupled in vitro transcription/translation (cell-free)
Experimental: as §1, §2, §3

CSK = molecular target: T2, CSK (Homo sapiens, UniProt P41240)
T2 construct: specificity data for proteins generated from a library of eighteen full-length clones; host or cells: rabbit reticulocyte lysate, TnT coupled in vitro transcription/translation (cell-free)
Experimental: as §1, §2, §3

HCK = molecular target: T3, HCK (Homo sapiens, UniProt P08631)
T3 construct: specificity data for proteins generated from a library of eighteen full-length clones; host or cells: rabbit reticulocyte lysate, TnT coupled in vitro transcription/translation (cell-free)
Experimental: as §1, §2, §3

Fgfr4 = molecular target: T4, Fgfr4 (Mus musculus, UniProt Q03142)
T4 construct: specificity data for proteins generated from a library of eighteen full-length clones; biotin on random lysines (biotin-Lys-tRNA); host or cells: rabbit reticulocyte lysate, coupled transcription/translation (TnT, Promega)
Experimental: as §1, §2, §3

Kit = molecular target: T5, Kit (Mus musculus, UniProt P05532)
T5 construct: specificity data for proteins generated from a library of eighteen full-length clones; biotin on random lysines (biotin-Lys-tRNA); host or cells: rabbit reticulocyte lysate, coupled transcription/translation (TnT, Promega)
Experimental: as §1, §2, §3

Tek = molecular target: T6, Tek (Mus musculus, UniProt Q02858)
T6 construct: specificity data for proteins generated from a library of eighteen full-length clones; host or cells: rabbit reticulocyte lysate, TnT coupled in vitro transcription/translation (cell-free)
Experimental: as §1, §2, §3

FGFR2 = molecular target: T7, FGFR2 (Mus musculus, UniProt P21803)
T7 construct: specificity data for proteins generated from a library of eighteen full-length clones; host or cells: rabbit reticulocyte lysate, TnT coupled in vitro transcription/translation (cell-free)
Experimental: as §1, §2, §3

SRC = molecular target: T8, SRC (Mus musculus, UniProt P05480)
T8 construct: specificity data for proteins generated from a library of eighteen full-length clones; host or cells: rabbit reticulocyte lysate, TnT coupled transcription/translation
Experimental: as §1, §2, §3

BMX = molecular target: T9, BMX (Homo sapiens, UniProt P51813)
T9 construct: specificity data for proteins generated from a library of eighteen full-length clones; host or cells: rabbit reticulocyte lysate, TnT coupled in vitro transcription/translation (cell-free)
T9 sequence (P51813 1-675): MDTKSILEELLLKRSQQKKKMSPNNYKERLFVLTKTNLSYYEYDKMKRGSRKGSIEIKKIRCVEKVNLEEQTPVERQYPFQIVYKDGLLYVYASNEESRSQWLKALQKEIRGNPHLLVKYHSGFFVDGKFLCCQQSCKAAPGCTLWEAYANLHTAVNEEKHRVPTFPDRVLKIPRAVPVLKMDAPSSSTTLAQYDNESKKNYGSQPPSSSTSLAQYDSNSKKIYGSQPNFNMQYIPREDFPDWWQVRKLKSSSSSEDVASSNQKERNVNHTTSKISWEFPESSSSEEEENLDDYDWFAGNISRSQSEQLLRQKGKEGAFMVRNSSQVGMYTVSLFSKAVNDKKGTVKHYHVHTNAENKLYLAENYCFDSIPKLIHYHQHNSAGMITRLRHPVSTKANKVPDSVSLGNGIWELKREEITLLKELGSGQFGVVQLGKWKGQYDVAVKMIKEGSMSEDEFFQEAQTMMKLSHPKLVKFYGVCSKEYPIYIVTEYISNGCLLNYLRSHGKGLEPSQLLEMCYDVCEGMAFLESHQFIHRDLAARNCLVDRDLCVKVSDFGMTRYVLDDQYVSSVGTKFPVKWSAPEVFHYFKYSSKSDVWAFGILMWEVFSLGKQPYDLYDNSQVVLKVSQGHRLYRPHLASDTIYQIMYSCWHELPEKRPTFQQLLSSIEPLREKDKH
Experimental: as §1, §2, §3

Fert2 = molecular target: T10, Fert2 (Mus musculus, UniProt P70451)
T10 construct: specificity data for proteins generated from a library of eighteen full-length clones; host or cells: rabbit reticulocyte lysate, TnT coupled transcription/translation
Experimental: as §1, §2, §3

T7 sequence (P21803 22-821): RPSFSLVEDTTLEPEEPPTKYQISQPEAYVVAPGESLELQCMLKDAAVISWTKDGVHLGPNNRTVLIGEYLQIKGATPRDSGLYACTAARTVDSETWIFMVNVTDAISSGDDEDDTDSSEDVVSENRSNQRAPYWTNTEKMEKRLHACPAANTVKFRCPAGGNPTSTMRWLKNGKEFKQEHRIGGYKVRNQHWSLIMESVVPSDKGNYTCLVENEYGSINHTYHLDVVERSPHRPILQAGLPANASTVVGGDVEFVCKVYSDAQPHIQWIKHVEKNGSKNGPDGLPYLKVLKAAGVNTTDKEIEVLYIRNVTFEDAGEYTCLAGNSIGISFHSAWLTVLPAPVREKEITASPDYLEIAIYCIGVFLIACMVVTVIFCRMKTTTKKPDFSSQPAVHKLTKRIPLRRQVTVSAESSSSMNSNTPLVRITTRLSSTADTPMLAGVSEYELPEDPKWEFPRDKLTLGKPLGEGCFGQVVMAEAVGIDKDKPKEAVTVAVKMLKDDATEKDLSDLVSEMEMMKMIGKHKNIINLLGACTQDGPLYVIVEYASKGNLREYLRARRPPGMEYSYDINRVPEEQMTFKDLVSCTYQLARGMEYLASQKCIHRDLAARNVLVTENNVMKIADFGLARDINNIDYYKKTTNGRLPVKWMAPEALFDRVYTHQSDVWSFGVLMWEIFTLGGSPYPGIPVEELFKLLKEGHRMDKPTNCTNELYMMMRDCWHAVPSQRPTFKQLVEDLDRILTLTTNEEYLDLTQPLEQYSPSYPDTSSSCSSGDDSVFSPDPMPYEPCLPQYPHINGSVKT
T3 sequence (P08631 whole entry): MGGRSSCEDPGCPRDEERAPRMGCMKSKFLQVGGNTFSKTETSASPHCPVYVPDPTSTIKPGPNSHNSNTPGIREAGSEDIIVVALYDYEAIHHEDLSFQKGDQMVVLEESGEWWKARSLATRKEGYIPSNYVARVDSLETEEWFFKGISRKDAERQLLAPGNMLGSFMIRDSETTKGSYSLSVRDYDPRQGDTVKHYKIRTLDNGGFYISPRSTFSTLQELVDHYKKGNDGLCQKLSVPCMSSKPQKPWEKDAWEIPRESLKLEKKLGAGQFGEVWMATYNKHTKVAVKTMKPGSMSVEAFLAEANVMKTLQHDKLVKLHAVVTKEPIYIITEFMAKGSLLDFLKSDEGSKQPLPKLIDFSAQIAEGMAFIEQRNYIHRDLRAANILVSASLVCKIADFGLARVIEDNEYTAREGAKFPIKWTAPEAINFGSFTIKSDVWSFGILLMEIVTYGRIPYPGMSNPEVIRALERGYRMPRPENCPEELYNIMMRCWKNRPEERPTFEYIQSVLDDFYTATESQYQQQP
T1 sequence (Q14289 whole entry): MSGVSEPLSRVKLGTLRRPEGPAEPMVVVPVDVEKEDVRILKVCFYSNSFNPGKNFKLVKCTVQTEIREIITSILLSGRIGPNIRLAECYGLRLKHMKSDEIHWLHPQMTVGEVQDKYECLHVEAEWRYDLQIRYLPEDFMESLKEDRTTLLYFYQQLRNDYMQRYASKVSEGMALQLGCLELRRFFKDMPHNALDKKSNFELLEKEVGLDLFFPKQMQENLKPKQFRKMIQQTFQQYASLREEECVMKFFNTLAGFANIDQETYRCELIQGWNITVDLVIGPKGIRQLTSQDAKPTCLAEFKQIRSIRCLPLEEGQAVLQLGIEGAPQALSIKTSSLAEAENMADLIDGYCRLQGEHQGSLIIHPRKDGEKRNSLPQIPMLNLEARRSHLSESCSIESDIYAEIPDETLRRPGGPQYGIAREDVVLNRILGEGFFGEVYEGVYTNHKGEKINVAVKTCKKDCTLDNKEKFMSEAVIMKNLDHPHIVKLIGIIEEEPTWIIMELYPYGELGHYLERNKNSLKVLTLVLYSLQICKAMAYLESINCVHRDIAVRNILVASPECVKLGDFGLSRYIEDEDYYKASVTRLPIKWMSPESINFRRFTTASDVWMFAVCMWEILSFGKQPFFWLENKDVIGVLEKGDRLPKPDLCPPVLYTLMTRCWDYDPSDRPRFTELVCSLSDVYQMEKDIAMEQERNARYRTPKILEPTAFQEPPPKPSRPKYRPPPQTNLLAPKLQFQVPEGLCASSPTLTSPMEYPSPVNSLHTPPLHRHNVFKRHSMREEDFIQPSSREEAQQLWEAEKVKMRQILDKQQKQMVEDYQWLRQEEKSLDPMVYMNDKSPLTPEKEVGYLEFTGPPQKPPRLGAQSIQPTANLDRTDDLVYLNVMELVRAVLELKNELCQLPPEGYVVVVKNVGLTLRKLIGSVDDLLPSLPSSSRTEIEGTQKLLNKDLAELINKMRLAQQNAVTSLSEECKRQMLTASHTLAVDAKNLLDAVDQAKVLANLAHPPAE
T2 sequence (P41240 whole entry): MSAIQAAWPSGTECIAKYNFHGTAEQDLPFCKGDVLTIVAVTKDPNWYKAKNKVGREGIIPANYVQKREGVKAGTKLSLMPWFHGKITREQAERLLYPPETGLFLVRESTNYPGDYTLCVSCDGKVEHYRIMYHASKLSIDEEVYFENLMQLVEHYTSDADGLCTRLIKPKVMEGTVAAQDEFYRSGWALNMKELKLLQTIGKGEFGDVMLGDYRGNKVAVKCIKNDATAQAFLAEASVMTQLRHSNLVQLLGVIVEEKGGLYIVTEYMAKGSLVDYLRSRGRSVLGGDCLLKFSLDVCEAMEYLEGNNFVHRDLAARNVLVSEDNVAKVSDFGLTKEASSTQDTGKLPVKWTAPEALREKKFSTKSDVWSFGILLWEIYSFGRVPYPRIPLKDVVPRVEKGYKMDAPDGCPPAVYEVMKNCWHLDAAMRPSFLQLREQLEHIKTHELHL
T10 sequence (P70451 whole entry): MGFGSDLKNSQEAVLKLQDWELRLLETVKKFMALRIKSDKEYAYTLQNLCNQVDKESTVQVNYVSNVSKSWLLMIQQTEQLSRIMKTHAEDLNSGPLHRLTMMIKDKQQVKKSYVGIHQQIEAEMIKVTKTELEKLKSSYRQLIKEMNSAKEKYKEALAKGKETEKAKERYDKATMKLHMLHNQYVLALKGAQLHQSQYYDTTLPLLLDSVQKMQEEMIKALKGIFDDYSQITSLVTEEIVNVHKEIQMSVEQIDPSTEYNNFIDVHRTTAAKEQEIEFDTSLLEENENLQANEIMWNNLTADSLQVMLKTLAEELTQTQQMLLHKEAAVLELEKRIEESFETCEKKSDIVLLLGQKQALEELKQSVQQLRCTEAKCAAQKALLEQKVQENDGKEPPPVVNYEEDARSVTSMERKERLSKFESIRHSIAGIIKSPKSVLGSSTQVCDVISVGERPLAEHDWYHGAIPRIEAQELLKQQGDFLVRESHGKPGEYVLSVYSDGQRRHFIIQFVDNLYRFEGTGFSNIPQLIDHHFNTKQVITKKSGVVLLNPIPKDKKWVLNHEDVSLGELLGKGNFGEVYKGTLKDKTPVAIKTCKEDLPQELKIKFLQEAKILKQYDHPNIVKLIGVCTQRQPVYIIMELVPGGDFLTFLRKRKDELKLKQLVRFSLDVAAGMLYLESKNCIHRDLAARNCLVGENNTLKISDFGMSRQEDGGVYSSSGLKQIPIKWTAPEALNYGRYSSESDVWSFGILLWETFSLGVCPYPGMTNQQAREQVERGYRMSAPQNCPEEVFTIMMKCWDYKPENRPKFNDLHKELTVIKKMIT
T5 sequence (P05532 25-979): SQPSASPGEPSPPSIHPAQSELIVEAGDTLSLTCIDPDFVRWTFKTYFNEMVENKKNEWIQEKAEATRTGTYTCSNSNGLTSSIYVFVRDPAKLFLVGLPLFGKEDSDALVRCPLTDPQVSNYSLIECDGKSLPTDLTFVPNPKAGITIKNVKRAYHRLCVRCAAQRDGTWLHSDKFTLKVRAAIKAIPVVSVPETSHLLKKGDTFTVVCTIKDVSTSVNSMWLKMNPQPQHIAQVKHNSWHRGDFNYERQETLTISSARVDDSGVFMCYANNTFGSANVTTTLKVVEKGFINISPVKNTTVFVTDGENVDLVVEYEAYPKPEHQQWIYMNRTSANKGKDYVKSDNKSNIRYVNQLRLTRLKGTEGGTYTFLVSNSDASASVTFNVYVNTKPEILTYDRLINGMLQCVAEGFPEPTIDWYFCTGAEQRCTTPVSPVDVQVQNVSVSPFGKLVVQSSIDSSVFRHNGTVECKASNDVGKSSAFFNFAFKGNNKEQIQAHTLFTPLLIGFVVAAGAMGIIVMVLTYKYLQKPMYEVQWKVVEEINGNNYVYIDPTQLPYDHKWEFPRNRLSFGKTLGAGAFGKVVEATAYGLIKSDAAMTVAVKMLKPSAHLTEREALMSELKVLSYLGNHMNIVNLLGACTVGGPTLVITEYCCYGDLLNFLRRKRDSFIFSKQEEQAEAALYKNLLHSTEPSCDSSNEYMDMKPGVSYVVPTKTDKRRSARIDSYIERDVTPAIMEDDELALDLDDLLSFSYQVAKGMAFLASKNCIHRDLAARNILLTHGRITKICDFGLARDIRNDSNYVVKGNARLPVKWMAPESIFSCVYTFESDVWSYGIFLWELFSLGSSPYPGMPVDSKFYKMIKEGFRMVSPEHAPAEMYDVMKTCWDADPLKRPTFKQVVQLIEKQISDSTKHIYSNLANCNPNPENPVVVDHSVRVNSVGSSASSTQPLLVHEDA

Compound | Inhibition specificity towards Autophosphorylation at 10X IC50, FRK (FRK) | Inhibition specificity towards Autophosphorylation at 10X IC50, PTK2B (PTK2B) | Inhibition specificity towards Autophosphorylation at 10X IC50, CSK (CSK) | Inhibition specificity towards Autophosphorylation at 10X IC50, HCK (HCK) | Inhibition specificity towards Autophosphorylation at 10X IC50, Fgfr4 (Fgfr4) | Inhibition specificity towards Autophosphorylation at 10X IC50, Kit (Kit) | Inhibition specificity towards Autophosphorylation at 10X IC50, Tek (Tek) | Inhibition specificity towards Autophosphorylation at 10X IC50, FGFR2 (FGFR2) | Inhibition specificity towards Autophosphorylation at 10X IC50, Src (SRC) | Inhibition specificity towards Autophosphorylation at 10X IC50, BMX (BMX) | Inhibition specificity towards Autophosphorylation at 10X IC50, Fert2 (Fert2)
COC(=O)c1ccc(NCc2cc(O)ccc2O)cc1 [AG-957] | L (low inhibition (“L”=between 50–75% of the activity remaining)) | L (low inhibition (“L”=between 50–75% of the activity remaining)) | L (low inhibition (“L”=between 50–75% of the activity remaining)) | L (low inhibition (“L”=between 50–75% of the activity remaining)) | L (low inhibition (“L”=between 50–75% of the activity remaining)) | L (low inhibition (“L”=between 50–75% of the activity remaining)) | M (medium inhibition (“M”=between 25 to 50% of the activity remaining)) | L (low inhibition (“L”=between 50–75% of the activity remaining)) | L (low inhibition (“L”=between 50–75% of the activity remaining)) | L (low inhibition (“L”=between 50–75% of the activity remaining)) | –
CC(C)(C)c1cc(C=C(C#N)C#N)cc(Br)c1O [AG-1024] | – | – | – | – | L (low inhibition (“L”=between 50–75% of the activity remaining)) | – | M (medium inhibition (“M”=between 25 to 50% of the activity remaining)) | L (low inhibition (“L”=between 50–75% of the activity remaining)) | – | – | –
Cc1cc2ncc(-c3ccc(O)c(O)c3)nc2cc1C [AG-1433] | H (high inhibition (“H”=less than 25% of the activity remaining)) | H (high inhibition (“H”=less than 25% of the activity remaining)) | H (high inhibition (“H”=less than 25% of the activity remaining)) | H (high inhibition (“H”=less than 25% of the activity remaining)) | H (high inhibition (“H”=less than 25% of the activity remaining)) | H (high inhibition (“H”=less than 25% of the activity remaining)) | H (high inhibition (“H”=less than 25% of the activity remaining)) | H (high inhibition (“H”=less than 25% of the activity remaining)) | H (high inhibition (“H”=less than 25% of the activity remaining)) | H (high inhibition (“H”=less than 25% of the activity remaining)) | H (high inhibition (“H”=less than 25% of the activity remaining))
COc1c(C=O)c(O)cc2c1C(=O)c1ccccc1C2=O [Damnacanthal] | H (high inhibition (“H”=less than 25% of the activity remaining)) | M (medium inhibition (“M”=between 25 to 50% of the activity remaining)) | M (medium inhibition (“M”=between 25 to 50% of the activity remaining)) | M (medium inhibition (“M”=between 25 to 50% of the activity remaining)) | H (high inhibition (“H”=less than 25% of the activity remaining)) | H (high inhibition (“H”=less than 25% of the activity remaining)) | H (high inhibition (“H”=less than 25% of the activity remaining)) | M (medium inhibition (“M”=between 25 to 50% of the activity remaining)) | H (high inhibition (“H”=less than 25% of the activity remaining)) | H (high inhibition (“H”=less than 25% of the activity remaining)) | L (low inhibition (“L”=between 50–75% of the activity remaining))
Cc1ccc(-c2nn(C(C)(C)C)c3ncnc(N)c23)cc1 [PP1] | – | – | – | – | – | – | – | – | L (low inhibition (“L”=between 50–75% of the activity remaining)) | – | –
COc1cc2ncnc(Nc3ccc(O)cc3)c2cc1OC [WHI-P131] | – | – | – | – | – | L (low inhibition (“L”=between 50–75% of the activity remaining)) | – | – | – | – | –
Erbstatin analog | – | L (low inhibition (“L”=between 50–75% of the activity remaining)) | – | L (low inhibition (“L”=between 50–75% of the activity remaining)) | – | L (low inhibition (“L”=between 50–75% of the activity remaining)) | L (low inhibition (“L”=between 50–75% of the activity remaining)) | L (low inhibition (“L”=between 50–75% of the activity remaining)) | L (low inhibition (“L”=between 50–75% of the activity remaining)) | L (low inhibition (“L”=between 50–75% of the activity remaining)) | L (low inhibition (“L”=between 50–75% of the activity remaining))
